Laboratory results taken from patent publication US7038047B2, “Substituted 6-(2-methoxyphenyl) triazolopyrimides as fungicides” (BASF Aktiengesellschaft, priority 2001, dated 2006).

What was measured:
Cercospora beticola = assay: Fungicidal control of leaf spot on beets (Cercospora beticola), protective spray on sugar beet seedlings; assay type: in vivo; conditions: sugar beet seedlings ACH-31, sprayed before inoculation, untreated plants infected to 90%
Description: The active compounds, separately or together, were formulated as a 10% emulsion in a mixture of 70% by weight of cyclohexanone, 20% by weight of Nekanil® LN (Lutensol® AP6, wetting agent having emulsifying and dispersant action based on ethoxylated alkylphenols) and 10% by weight of Wettol® EM (nonionic emulsifier based on ethoxylated castor oil) and diluted with water to the desired concentration. Young sugar beet seedlings of the cultivar “ACH-31” were grown in pots to the 2 to 4 leaf stage. These plants were sprayed to runoff with an aqueous suspension, containing the concentration of active ingredient mentioned in the table below, prepared from a stock solution containing 5% of the active ingredient, 94% cyclohexanone and 1% emulsifier (Tween 20). After the plants had dried (3–5 h), they were inoculated with a spore suspension of Cercospora beticola in an aqueous solution of 0.5% gelatine. Then the trial plants were immediately transferred to a humid chamber with 18–23° C. and a relative humidity close to 100% and kept there for 5 days. For a period of further 10–14 days a cultivation in a greenhouse followed at 21–23° C. and a relative humidity about 95%. Then the extent of fungal attack on the leaves was visually assessed as % diseased leaf area.

[1] = test system: cucumber mildew (Sphaerotheca fuliginea); assay: Protective action on cucumber mildew, cucumber seedlings; assay type: in vivo; conditions: 250 ppm, inoculated 20 hours after spraying, assessed after 7 days, untreated plants infected to 90%
Text: The active compounds, separately or together, were formulated as a 10% emulsion in a mixture of 70% by weight of cyclohexanone, 20% by weight of Nekanil® LN (Lutensol® AP6, wetting agent having emulsifying and dispersant action based on ethoxylated alkylphenols) and 10% by weight of Wettol® EM (nonionic emulsifier based on ethoxylated castor oil) and diluted with water to the desired concentration.
Leaves of pot grown cucumber seedlings of the “Chinesische Schlange” variety were sprayed to runoff with aqueous liquors made from a stock solution consisting of 10% of active ingredient, 85% of cyclohexanone, and 5% of emulsifier. 20 hours after the sprays-on layer had dried, the plants were inoculated with a aqueous spore suspension of cucumber mildew (Sphaerotheca fuliginea). The plants were then placed for 7 days in the greenhouse at 20 to 24° C. and a relative humidity of 60 to 80%. The extent of fungus spread was assessed as %-attack of the whole leaf surface.

SMILES	infection (% diseased leaf area) (Cercospora beticola; 50 ppm)	infection (% diseased leaf area) (Cercospora beticola; 200 ppm)	infection (%-attack of the whole leaf surface) [1]
COc1cc(F)cc(F)c1-c1c(Cl)nc2ncnn2c1NC(C)C(F)(F)F (stereo not drawn) [I-38, 5-chloro-6-(4,6-difluoro-2-methoxyphenyl)-7-(1,1,1-trifluoroprop-2-yl)amino-[1,2,4]-triazolo[1,5-α]pyrimidine]	not more than 7%	not more than 7%	–
COc1cc(F)cc(F)c1-c1c(Cl)nc2ncnn2c1NC(C)C(F)(F)F (stereo not drawn) [I-38B, 5-chloro-6-(4,6-difluoro-2-methoxyphenyl)-7-(1,1,1-trifluoroprop-2-yl)amino-[1,2,4]-triazolo[1,5-α]pyrimidine]	–	–	no infection
